{"source": "patent US7326721B2", "about": "(Hypnion, Inc., priority 2003, dated 2008)", "key": {"GABA A, Agonist Site": {"test_system": "GABA A, Agonist Site", "assay": "Table 12 panel: GABA A, Agonist Site", "format": "binding", "settings": "1.0E−6, average N=2", "text": "(§1) The percentage inhibition (average; N=2) for these receptors is shown below in Table 12.\n(§2) Values in Table 12 are expressed as percentage inhibition of specific binding, and these values represent the average of replicate tubes at each of the concentrations tested."}, "Glutamate, AMPA Site": {"test_system": "Glutamate, AMPA Site", "assay": "Table 12 panel: Glutamate, AMPA", "format": "binding", "settings": "1.0E−6, average N=2", "text": "as §1, §2"}, "Glutamate, Kainate Site": {"test_system": "Glutamate, Kainate Site", "assay": "Table 12 panel: Glutamate, Kainate", "format": "binding", "settings": "1.0E−6, average N=2", "text": "as §1, §2"}, "[1]": {"target": "Norepinephrine Transporter (Homo sapiens, UniProt P23975)", "sequence (P23975 whole entry, species assumed)": "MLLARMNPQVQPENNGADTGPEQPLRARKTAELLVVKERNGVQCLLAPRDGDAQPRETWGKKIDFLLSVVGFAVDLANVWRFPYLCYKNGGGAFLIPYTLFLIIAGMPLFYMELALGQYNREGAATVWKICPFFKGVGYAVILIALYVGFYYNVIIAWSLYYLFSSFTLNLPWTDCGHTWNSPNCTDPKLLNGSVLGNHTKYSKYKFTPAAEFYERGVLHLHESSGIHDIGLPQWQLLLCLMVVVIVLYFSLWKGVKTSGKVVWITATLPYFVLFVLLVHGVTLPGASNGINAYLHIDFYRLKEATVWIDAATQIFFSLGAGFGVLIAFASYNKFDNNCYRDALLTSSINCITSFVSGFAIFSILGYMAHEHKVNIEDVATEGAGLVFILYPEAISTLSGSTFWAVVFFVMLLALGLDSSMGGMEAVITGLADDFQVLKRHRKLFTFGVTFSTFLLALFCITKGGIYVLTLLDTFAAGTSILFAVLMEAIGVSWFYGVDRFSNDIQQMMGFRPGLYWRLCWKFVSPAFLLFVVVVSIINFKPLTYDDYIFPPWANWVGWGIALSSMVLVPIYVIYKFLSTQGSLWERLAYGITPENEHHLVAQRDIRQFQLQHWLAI", "assay": "Table 12 panel: Norepinephrine Transporter", "settings": "1.0E−6, average N=2, read-out: percentage inhibition of specific binding", "text": "as §1, §2"}, "[2]": {"test_system": "Calcium Channel, Type L (Dihydropyridine Site)", "assay": "Table 12 panel: Calcium Channel, Type L", "format": "binding", "settings": "1.0E−6, average N=2", "text": "as §1, §2"}, "Sodium, Site 2": {"test_system": "Sodium, Site 2", "assay": "Table 12 panel: Sodium, Site 2", "format": "binding", "settings": "1.0E−6, average N=2", "text": "as §1, §2"}, "Leukotriene, LTD4": {"target": "Leukotriene, LTD4 (Homo sapiens, UniProt Q9Y271)", "sequence (Q9Y271 whole entry)": "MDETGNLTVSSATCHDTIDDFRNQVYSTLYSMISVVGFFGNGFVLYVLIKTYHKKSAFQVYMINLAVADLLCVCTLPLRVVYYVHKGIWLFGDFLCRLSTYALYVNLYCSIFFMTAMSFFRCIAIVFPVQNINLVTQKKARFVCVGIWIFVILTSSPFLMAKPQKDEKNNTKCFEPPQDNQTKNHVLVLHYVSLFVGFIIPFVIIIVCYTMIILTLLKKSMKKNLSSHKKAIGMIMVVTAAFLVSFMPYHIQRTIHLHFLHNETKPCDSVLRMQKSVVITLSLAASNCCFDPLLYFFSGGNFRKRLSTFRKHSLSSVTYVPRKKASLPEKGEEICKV", "assay": "Table 12 panel: Leukotriene, LTD4", "settings": "1.0E−6, average N=2, read-out: percentage inhibition of specific binding", "text": "as §1, §2"}, "Thromboxane A2 (h)": {"target": "Thromboxane A2 (h) (Homo sapiens, UniProt P21731)", "sequence (P21731 whole entry)": "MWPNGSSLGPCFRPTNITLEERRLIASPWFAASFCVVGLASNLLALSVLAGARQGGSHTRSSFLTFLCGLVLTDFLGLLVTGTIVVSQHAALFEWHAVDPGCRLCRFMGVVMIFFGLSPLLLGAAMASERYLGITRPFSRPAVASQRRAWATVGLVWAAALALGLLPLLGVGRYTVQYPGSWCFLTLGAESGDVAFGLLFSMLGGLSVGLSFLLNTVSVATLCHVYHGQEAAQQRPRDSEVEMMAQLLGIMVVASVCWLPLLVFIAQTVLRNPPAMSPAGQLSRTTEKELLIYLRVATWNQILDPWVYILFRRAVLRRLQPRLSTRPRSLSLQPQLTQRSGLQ", "assay": "Table 12 panel: Thromboxane A2", "settings": "1.0E−6, average N=2, read-out: percentage inhibition of specific binding", "text": "as §1, §2"}, "Angiotensin II, AT1 (h)": {"target": "Angiotensin II, AT1 (h) (Homo sapiens, UniProt P30556)", "sequence (P30556 whole entry)": "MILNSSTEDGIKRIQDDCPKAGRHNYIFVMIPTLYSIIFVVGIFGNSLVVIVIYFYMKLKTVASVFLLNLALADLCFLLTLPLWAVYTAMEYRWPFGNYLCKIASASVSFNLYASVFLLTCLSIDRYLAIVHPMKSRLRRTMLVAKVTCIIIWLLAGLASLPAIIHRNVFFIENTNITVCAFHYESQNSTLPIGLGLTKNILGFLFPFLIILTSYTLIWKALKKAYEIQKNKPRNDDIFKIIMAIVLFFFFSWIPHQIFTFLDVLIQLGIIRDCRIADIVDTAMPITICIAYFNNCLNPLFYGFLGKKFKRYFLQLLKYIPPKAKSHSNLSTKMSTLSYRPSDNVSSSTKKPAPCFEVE", "assay": "Table 12 panel: Angiotensin II, AT1", "settings": "1.0E−6, average N=2, read-out: percentage inhibition of specific binding", "text": "as §1, §2"}, "[3]": {"test_system": "Vasoactive Intestinal Peptide, Non-selective", "assay": "Table 12 panel: VIP", "format": "binding", "settings": "1.0E−6, average N=2", "text": "as §1, §2"}, "[4]": {"target": "Oxidase, MAO-A, Peripheral (Homo sapiens, UniProt P21397)", "sequence (P21397 whole entry)": "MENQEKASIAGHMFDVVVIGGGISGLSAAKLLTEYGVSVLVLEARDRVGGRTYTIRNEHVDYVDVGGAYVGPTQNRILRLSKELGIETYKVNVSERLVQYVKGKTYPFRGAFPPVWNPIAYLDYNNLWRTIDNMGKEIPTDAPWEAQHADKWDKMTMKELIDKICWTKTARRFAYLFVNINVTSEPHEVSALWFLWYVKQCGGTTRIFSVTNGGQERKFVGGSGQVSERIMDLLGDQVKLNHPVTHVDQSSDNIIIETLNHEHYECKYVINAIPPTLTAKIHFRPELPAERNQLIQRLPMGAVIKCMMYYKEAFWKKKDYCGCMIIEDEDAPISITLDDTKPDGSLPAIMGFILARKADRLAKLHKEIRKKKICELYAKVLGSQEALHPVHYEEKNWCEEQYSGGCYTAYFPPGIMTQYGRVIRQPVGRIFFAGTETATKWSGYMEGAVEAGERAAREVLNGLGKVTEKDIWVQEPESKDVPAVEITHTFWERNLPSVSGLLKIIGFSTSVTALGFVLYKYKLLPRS", "assay": "Table 12 panel: MAO-A", "format": "biochemical", "settings": "1.0E−6, average N=2", "text": "as §1, §2"}, "hERG [5]": {"target": "T1, hERG (Homo sapiens, UniProt Q12809)", "T1 sequence (Q12809 whole entry)": "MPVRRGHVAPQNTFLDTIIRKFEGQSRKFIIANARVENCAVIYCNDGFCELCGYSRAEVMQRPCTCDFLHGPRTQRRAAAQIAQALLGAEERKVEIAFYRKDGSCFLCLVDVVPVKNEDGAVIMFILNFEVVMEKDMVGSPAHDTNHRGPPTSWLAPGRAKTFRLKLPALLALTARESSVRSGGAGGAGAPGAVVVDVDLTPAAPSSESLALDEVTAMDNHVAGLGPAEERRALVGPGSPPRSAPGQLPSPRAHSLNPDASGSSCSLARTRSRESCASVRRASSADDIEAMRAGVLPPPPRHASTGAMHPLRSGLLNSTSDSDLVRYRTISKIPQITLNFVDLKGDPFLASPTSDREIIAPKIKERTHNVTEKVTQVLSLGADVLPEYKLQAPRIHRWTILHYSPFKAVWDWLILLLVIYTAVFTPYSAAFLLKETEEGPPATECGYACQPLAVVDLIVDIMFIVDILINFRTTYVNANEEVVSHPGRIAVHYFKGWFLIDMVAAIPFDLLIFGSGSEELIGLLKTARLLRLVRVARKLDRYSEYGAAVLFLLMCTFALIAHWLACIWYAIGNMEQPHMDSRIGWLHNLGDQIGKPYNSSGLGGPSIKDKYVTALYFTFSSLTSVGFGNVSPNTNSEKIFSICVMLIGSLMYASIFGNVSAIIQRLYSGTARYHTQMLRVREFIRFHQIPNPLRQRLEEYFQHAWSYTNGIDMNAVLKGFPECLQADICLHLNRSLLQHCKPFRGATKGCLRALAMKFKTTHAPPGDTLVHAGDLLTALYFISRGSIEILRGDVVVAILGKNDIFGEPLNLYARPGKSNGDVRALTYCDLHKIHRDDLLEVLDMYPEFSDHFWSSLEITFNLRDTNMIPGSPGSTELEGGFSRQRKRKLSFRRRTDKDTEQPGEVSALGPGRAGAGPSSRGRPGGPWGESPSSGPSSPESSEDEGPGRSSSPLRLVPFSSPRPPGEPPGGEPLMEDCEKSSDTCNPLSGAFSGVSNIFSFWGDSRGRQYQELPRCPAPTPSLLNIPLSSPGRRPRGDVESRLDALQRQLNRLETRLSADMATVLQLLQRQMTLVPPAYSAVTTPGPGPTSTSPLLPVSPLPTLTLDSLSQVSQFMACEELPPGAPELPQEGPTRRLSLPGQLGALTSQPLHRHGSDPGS", "assay": "Table 12 panel: hERG binding", "design": "expressed in transfected cells", "settings": "human recombinant hERG potassium channel (binding assay), I[Kr] (hERG) (hr), 1.0E−6, average N=2, read-out: percentage inhibition of specific binding", "text": "as §1, §2"}, "rat hepatocytes": {"test_system": "rat hepatocytes", "assay": "In vitro rate of metabolism in rat hepatocyte cultures", "format": "in vitro ADME", "experimental": "(§3) Cytochrome P450 inhibition was studied with HY2901 in vitro. […] In addition, the in vitro rate of metabolism in rat, dog, monkey, and human hepatocyte cultures was determined for HY2901."}, "human hepatocytes": {"test_system": "human hepatocytes", "assay": "In vitro metabolism in human (cryopreserved) hepatocytes", "format": "in vitro ADME", "settings": "human hepatocyte cultures", "experimental": "Metabolism of test articles in monkey and human cryopreserved hepatocytes is assayed as follows:\nSample is diluted with DMSO, to prepare 100 μM and 10 μM stocks. 0.1% formic acid in acetonitrile is prepared by the addition of 1 mL formic acid per 1 L acetonitrile (store RT for 3 months). 10 minute, 60 and 120 minute 96 well quenching plates are prepared with 150 μL acetonitrile+0.1% formic acid in each well. Store on ice or refrigerated.\nNext, hepatocytes are thawed and 100 μL of cell suspension is placed into a microfuge tube with 100 μL 0.4% Trypan Blue solution and gently mix by inversion. A small amount of the stained cell suspension (approximately 15 μL) is placed into a clean hemacytometer with a coverslip. The hemacytometer is placed onto the stage of the microscope and the focus and power are adjusted until a single counting square fills the field. The number of cells in the four outside corner subdivided squares of the hemacytometer are counted. Viable cells are opalescent, round, and pale with a darker outline. Non-viable cells are dark, opaque blue.\n198 μL of hepatocytes are transferred to relevant wells on dosing plate.\nPlates are preincubated for at least 15 min. […]\nas §3"}, "hERG [6]": {"target": "T1, hERG", "settings": "human, 10 µM, pH 7.4"}, "[7]": {"assay": "Brain levels of parent drug after oral administration", "settings": "rat, 3 mg/kg"}}, "data": [{"smiles": "CC(CC(=O)O)N1CCC(=C2c3ccc(F)cc3COc3ccccc32)CC1", "note": "(stereo not shown) [Compound 37]", "values": [{"measurement": "percentage inhibition of specific binding", "setting": "GABA A, Agonist Site", "value": 20.18, "unit": "%"}, {"measurement": "percentage inhibition of specific binding", "setting": "Glutamate, AMPA Site", "value": 3.59, "unit": "%"}, {"measurement": "percentage inhibition of specific binding", "setting": "Glutamate, Kainate Site", "value": 1.51, "unit": "%"}, {"measurement": "inhibition at 1 µM", "setting": "[1]", "value": 19.5, "unit": "%"}, {"measurement": "percentage inhibition of specific binding", "setting": "[2]", "value": 5.82, "unit": "%"}, {"measurement": "percentage inhibition of specific binding", "setting": "Sodium, Site 2", "value": "−4.12", "unit": "%"}, {"measurement": "inhibition at 1 µM", "setting": "Leukotriene, LTD4", "value": -20.1, "unit": "%"}, {"measurement": "inhibition at 1 µM", "setting": "Thromboxane A2 (h)", "value": 6.55, "unit": "%"}, {"measurement": "inhibition at 1 µM", "setting": "Angiotensin II, AT1 (h)", "value": 12, "unit": "%"}, {"measurement": "percentage inhibition of specific binding", "setting": "[3]", "value": 2.51, "unit": "%"}, {"measurement": "percentage inhibition", "setting": "[4]", "value": "−17.23", "unit": "% ^"}, {"measurement": "inhibition at 1 µM", "setting": "hERG [5]", "value": -5.23, "unit": "%"}]}, {"smiles": "CC(C)(CN1CCC(=C2c3ccc(F)cc3COc3ccccc32)CC1)C(=O)O", "note": "[Compound 49a]", "values": [{"measurement": "in vitro metabolism", "setting": "rat hepatocytes", "value": "extensively metabolized"}, {"measurement": "in vitro metabolism", "setting": "human hepatocytes", "value": "little metabolism was observed"}, {"measurement": "hERG at micromolar (% blocking of the hERG channel)", "setting": "hERG [6]", "value": "10.9 @ 10%"}, {"measurement": "Kp", "setting": "[7]", "value": 1}]}]}
